Key:
[1] = tested on: Ova-specific OT-II TcR transgenic T cells; experiment: Antigen-specific OT-II T cell proliferation after sublingual administration (cell-tracker dye, flow cytometry); assay type: in vivo, mice; conditions: GLA 0.2 μg, OVa323-339 peptide 10 μg, four days later (FIGS. 4A, 4C, 4E)
Description: Ova-specific OT-II TcR transgenic T cells were labeled with cell-tracker violet dye and adoptively transferred into syngeneic wild type mice. Mice then received sublingual administration of GLA (0.2 μg) alone (FIGS. 4A and 4B), OVa323-339 peptide (10 μg) alone (FIGS. 4C and 4D), or GLA co-administered with Ova peptide (FIGS. 4E and 4F). Four days later, the draining cervical lymph nodes (FIGS. 4A, 4C, and 4E) and spleen (FIGS. 4B, 4D, and 4F) were removed and OT-II T cell proliferation (via the decrease in cell-tracker dye fluorescence) was measured by flow cytometry.
Methods. Sublingual administration was performed as described above in Example 1.
Formulations of Ova peptide and/or GLA included methylcellulose as described in Example 1. Mixtures of methylcellulose+Ova peptide, and methylcellulose+Ova peptide+GLA were prepared the day before dosing.
Ova-specific OT-II TcR transgenic T cells were labeled with cell-tracker violet dye and adoptively transferred into syngeneic wild type mice. Mice then received sublingual administration of GLA (0.2 μg, 0.02 μg or 0.002 μg) co-administered with OVa323-339 peptide or peptide without GLA (0 mg). Four days later, cervical lymph nodes were removed and OT-II T cell proliferation (via the decrease in cell-tracker dye fluorescence) was measured by flow cytometry.

[2] = tested on: IL-6
Description: GLA was formulated in DPPC (1,2-dipalmitoyl-sn-glycero-3-phosphocholine) as GLA:DPPC 1:2 (M:M) in Millipore (sterile) water. Animals were sedated with ketamine (5 mg/kg to 10 mg/kg)/dexmedetomidine (0.01 mg/kg to 0.016 mg/kg), IM (intramuscularly), while in their cage. Once sedated, they were brought into the laboratory and placed onto a circulating water heating pad (Gaymar). Sublingual (right side) and left cheek pouch mucosal brushings were taken 15 minutes prior to dosing using Copan FLOQSwabs™ and placed into RLT buffer (QIAmp Minikit Plus, Qiagen), vortexed and immediately frozen on dry ice. Sublingual dosing of GLA (100 μl dosed via syringe) was performed under the right side of the animals tongue and allowed to absorb into the mucosa for three minutes. Further sublingual and cheek brushings were obtained at 6 hr, 24 hr and 48 hr post dosing.
RNA processing was performed from the cheek and sublingual swabs using a QIAmp Minikit Plus (Qiagen) which includes a gDNA (genomic DNA) eliminator column. Gene expression was quantified using the Comparative CT Method, which calculates the relative gene expression quantitation between a target gene and an endogenous control. All target genes were quantitated relative to the expression of the housekeeping gene ARL1. Using the relative expression, the fold of baseline expression was calculated as [(Relative gene expression at time point of interest)/(Baseline relative gene expression)].

[3] = six hours after sublingual administration

Molecule: CCCCCCCCCCCCCC(=O)O[C@H](CCCCCCCCCCC)CC(=O)O[C@@H]1[C@@H](NC(=O)C[C@H](CCCCCCCCCCC)OC(=O)CCCCCCCCCCCCC)[C@H](OC[C@H]2O[C@H](O)[C@H](NC(=O)C[C@H](O)CCCCCCCCCCC)[C@@H](OC(=O)C[C@H](O)CCCCCCCCCCC)[C@@H]2O)O[C@H](CO)[C@H]1OP(=O)(O)O [GLA, Glucopyranosyl Lipid A]
- antigen-specific T cell proliferation in the draining cervical lymph nodes [1]: not
- IL-6 expression 24 hours after sublingual administration ([2]; 24 hours after sublingual administration): not detected
- duration of local action within the oral cavity ([2]; current formulation GLA:DPPC 1:2, sublingual): ≤ 1 days
- IL-6 in brushings from the cheek [2, 3]: not detected
- IL-6 in the blood [2, 3]: not detected
- IL-6 expression in sublingual mucosal brushings ([2]; six hours after sublingual administration, 3 different doses of GLA): dose-dependent expression of IL-6

Molecule: OVa323-339 peptide: Ova peptide antigen recognised by OT-II TcR transgenic T cells (KISQAVHAAHAEINEAG; UniProt P01012 323-339, looked up, fragment)
- antigen-specific T cell proliferation in the draining cervical lymph nodes [1]: not
